Common to all, as to type: cell-based, human
Test [1] relates to foam cell formation on the VSA. Put plainly: VSA foam cell assay (BODIPY staining). To be noted: for foam cell formation (BODIPY): day 10, vs. control 100%; for foam cell generation (BODIPY): day 10, vs. control. On the procedure: Experimental: (1) Fabrication of large-scale VSA high throughput culture systems: Individual VSAs were fabricated in each well of a 48-well tissue culture plate, following the method described in Example 4 (FIG. 7A, step 1), to create a high throughput culture system for testing drug effects on atherosclerosis. (2) The VSAs were divided into two groups: treated and untreated. (3) The treated group was treated with rosuvastatin (10 uM) or sirolimus (10 nM) by dilution of the stock solution into the “culture medium 7” on day 0 (FIG. 7B, step 2). (4) The VSAs, both treated and untreated, were co-cultured for 10 days with a fresh culture medium 7 with monocytes added on day 3 and day 7, respectively. (5) BODIPY staining was used to quantify foam cell formation: On day 10, a 10 mM BODIPY stock solution was prepared by dissolving in DMSO and stored at −20° C. Before the experiment, a 100 times diluted working solution was prepared from the stock solution using PBS. The VSAs were gently washed with PBS, then BODIPY was added, incubated in the dark for 30 min, imaged immediately using a microscope, and quantified at ex/em 485 nm/520 nm.
Experimental: (1) Fabrication of VSA high throughput culture systems: the large-scale VSA high throughput culture system was achieved by fabricating individual VSAs in each well of the 48-well tissue culture plate, following the same method described in Example 4 (FIG. 7A, step 1). (2) Divide the VSAs into two groups. (3) Treatment of VSAs in one group with curcumin (200 uM) or colchicine (100 nM) by dilution of the stock solution into the “culture medium 7” containing monocytes on day 0 (FIG. 7B, step 2). (4) The VSAs, treated or untreated, were co-cultured for 10 days. A fresh culture medium 7 was added to the co-culture system on day 3 and day 7, respectively. (5) BODIPY staining: On day 10, 10 mM BODIPY stock solution was prepared by dissolving in DMSO and stored at −20° C. Before the experiment, 100 times diluted working solution was prepared from stock solution using PBS. Then, the VSAs treated or untreated with curcumin (200 uM), and colchicine (100 nM) were gently washed with PBS, then BODIPY was added and incubated in the dark.
Experimental: (1) Fabrication of VSA high throughput culture systems: the large-scale VSA high throughput culture system was achieved by fabricating individual VSAs in each well of the 48-well tissue culture plate, following the same method described in Example 4 (FIG. 7A, step 1). (2) Divide the VSAs into two groups. (3) Treatment of VSAs in one group with free miR-146a (600 nM) by dilution of the stock solution into the culture medium 7 on day 0 (FIG. 7B, step 2). (4) The VSAs, treated or untreated, were co-cultured for 10 days. […]

For test [2], the system named is atherosclerosis-related gene expression of VSAs. In words: VSA gene assay (qRT-PCR). On the procedure:
Experimental: To create a large-scale VSA high throughput culture system, individual VSAs were fabricated in each well of a 48-well tissue culture plate using the method described in Example 4 (FIG. 7A, step 1). The VSAs were then divided into two groups. One group was treated with rosuvastatin (10 uM) and sirolimus (10 nM) by diluting the stock solution into the “culture medium 7” containing monocytes on day 0 (FIG. 7B, step 2). The treated and untreated VSAs were co-cultured for 10 days with fresh culture medium 7 with monocytes added on day 3 and day 7, respectively. On day 10, RNA was extracted using the TRIzol™ reagent (Invitrogen) and purified using the Direct-Zol™ RNA Miniprep Plus kit following the protocol (Zymo Research). EDTA was added before phase separation to bind the calcium and help disintegrate the nanomatrix VSAs. The upper transparent aqueous phase was collected and RNA was suspended in nuclease-free water. The concentration and purity of RNA for each sample were determined using an ND-1000 UV spectrophotometer (Nanodrop). Complementary DNA was synthesized using 50 ng of RNA and reverse transcribed in a 2720 Thermo Cycler (Applied Biosystems) using a Verso cDNA Synthesis Kit (Thermo Fisher) according to the manufacturer's protocol. Samples were prepared in a 96-well PCR plate using the TaqMan Master Mix protocol. Each sample consisted of 2 μL of cDNA solution, 10 μL of 2× master mix, 7 μL of RNA-free water, and 1 μL of gene primer from a TaqMan Gene Expression Assay kit (Applied Biosytems). The PCR plate was run in a LightCycler 480 (Roche Life Science) for the following cycles: pre-incubation at 50° C. for 2 minutes and 95° C. for 10 min; amplification for 45 cycles, at 95° C. for 15 seconds, and 60° C. for 1 minute during each cycle; melting at 95° C. for 5 seconds and 65° C. for 1 minute, and cooling at 40° C. for 30 seconds.
Experimental: (1) Fabrication of VSA high throughput culture systems: the large-scale VSA high throughput culture system was achieved by fabricating individual VSAs in each well of the 48-well tissue culture plate, following the same method described in Example 4 (FIG. 7A, step 1). (2) Divide the VSAs into two groups. (3) Treatment of VSAs in one group with curcumin (200 uM) or colchicine (100 nM) by dilution of the stock solution into the “culture medium 7” containing monocytes on day 0 (FIG. 7B, step 2). (4) The VSAs, treated or untreated, were co-cultured for 10 days. A fresh culture medium 7 with monocytes was added to the co-culture system on day 3 and day 7, respectively. (5) RNA extraction and real-time qRT-PCR: On day 10, before phase separation, EDTA (Ethylenediaminetetraacetic acid) was added to bind the calcium and help disintegrate the nanomatrix VSAs. For phase separation, TRIzol™ reagent was added to the samples (>9 times of the sample volume) and incubated for 5 min. Then chloroform was added, mixed by shaking, and centrifuged (11,600 g, 15 min, 4° C.) to obtain phase separation. The upper transparent aqueous phase was collected and purified using the Direct-Zol™ RNA Miniprep Plus kit following the protocol. RNA was suspended in nuclease-free water, and an ND-1000 UV spectrophotometer was used to quantify the concentration and purity of RNA for each sample. Complementary DNA was then synthesized using 50 ng of RNA, which was reverse transcribed in a 2720 Thermo Cycler (Applied Biosystems) using a Verso cDNA Synthesis Kit according to the manufacturer's protocol. Samples were prepared in a 96-well PCR plate using the TaqMan Master Mix protocol. Each sample consisted of 2 μL of cDNA solution, 10 μL of 2× master mix, 7 μL of RNA-free water, and 1 μL of gene primer from a TaqMan Gene Expression Assay kit. […]
(In general: Real-time PCR tracks product formation cycle by cycle.)

The subject of test [3] is cytokine secretion of VSAs. Put plainly: VSA cytokine assay (ELISA of supernatant). In general terms: ELISA stands for enzyme-linked immunosorbent assay.
The test system of test [4] is cytokine secretion of VSAs. In words: VSA cytokine assay (ELISA of supernatant). On the procedure: (§1) Experimental: (1) Fabrication of VSA high throughput culture systems: large-scale VSA high throughput culture systems were achieved by fabricating individual VSAs in each well of the 48-well tissue culture plate, following the same method described in Example 4 (FIG. 7A, step 1). (2) Divide the VSAs into two groups. (3) Treatment of VSAs in one group with rosuvastatin (10 uM) or sirolimus (10 nM) by dilution of the stock solution into the culture medium 7 on day 0 (FIG. 7B, step 2). (4) The VSAs, treated or untreated, were culturing in culture medium 7 for 10 days. A fresh culture medium 7 was added to the co-culture system on day 3 and day 7, respectively. (5) ELISA: On day 10, the supernatant from VSAs was collected for ELISA to measure the significant inflammatory cytokine secretion.
as §1, with “systems: the” for “systems:”, “system was” for “systems were”, “curcumin (200” for “rosuvastatin (10”, “colchicine (100” for “sirolimus (10”, “cultured using” for “culturing in”, “measure” for “measure the significant”
as §1, with “systems: the” for “systems:”, “system was” for “systems were”, “free miR-146a (600 nM)” for “rosuvastatin (10 uM)”, “Lip-miR-146a (600” for “sirolimus (10”, “co-cultured” for “culturing in culture medium 7”, “Afresh” for “A fresh”
This is another data set of the same source.

Setting [5] is: rosuvastatin 10 uM, day 10, compared to the control.
Where [6] appears, read: rosuvastatin 10 uM, day 10, vs. control.
[7] abbreviates: colchicine 100 nM, day 10, vs. control.
Setting [8] is: sirolimus 10 nM, day 10, of the control group.
Setting [9] is: sirolimus 10 nM, day 10, relative to the control.
Where [10] appears, read: curcumin 200 uM, day 10, vs. control.

As for `CC(C)c1nc(N(C)S(C)(=O)=O)nc(-c2ccc(F)cc2)c1/C=C/[C@@H](O)C[C@@H](O)CC(=O)O` [rosuvastatin], the “foam cell formation (BODIPY)” value in test [1] (rosuvastatin 10 uM) worked out at 50.77±8.32%. In test [2] (setting [5]), the MMP-2 gene expression came out at 4.46±1.75% and the VEGF-A gene expression entry was “significantly lower”. Further, the IL-6 gene expression in test [2] (rosuvastatin 10 uM, day 10, of control) worked out at 5.20±0.38%. Besides, in test [2] (setting [6]), the COL17A1 gene expression is given as 127.03±35.49 fold and the PECAM-1 gene expression is reported as 146.76±44.63 fold. The IL-10 secretion in test [3] (rosuvastatin 10 uM, day 10, compared with the control) amounted to 2.10±0.50 fold. The molecule also displayed an IL-8 production in test [3] (setting [6]) of 48.64±6.17%. In test [4] (setting [6]), this molecule showed an IFN-γ production of 44.03±3.20%, an IL-1α production of 66.78±6.52%, an IL-6 production of 71.50±4.34% and a TNF-α production of 39.69±5.53%.

On to `COc1cc2c(c(OC)c1OC)-c1ccc(OC)c(=O)cc1[C@@H](NC(C)=O)CC2` [colchicine], for which the “foam cell generation (BODIPY)” value in test [1] (colchicine 100 nM) is reported as 50.86±4.57%. Moreover, in test [2] (setting [7]), the COL3A1 gene expression was determined as 8.93±1.30%, the MMP-2 gene expression was determined as 6.36±1.44% and the PECAM-1 gene expression is 3.35±0.68 fold. Also, in test [3] (setting [7]), the IFN-γ production worked out at 61.95±7.79%, the MCP-1 production is reported as 26.31±1.77% and the TNF-α production amounted to 53.16±7.92%. In test [4] (colchicine 100 nM, day 10), this molecule displayed an IL-1α production of 71.31±5.84%. In test [4] (setting [7]), this molecule showed an IL-4 production of 1.39±0.14 fold and an IL-8 production of 42.57±1.80%.

In the case of `CO[C@H]1C[C@@H]2CC[C@@H](C)[C@@](O)(O2)C(=O)C(=O)N2CCCC[C@H]2C(=O)O[C@H]([C@H](C)C[C@@H]2CC[C@@H](O)[C@H](OC)C2)CC(=O)[C@H](C)/C=C(\C)[C@@H](O)[C@@H](OC)C(=O)[C@H](C)C[C@H](C)/C=C/C=C/C=C/1C` [sirolimus], the “foam cell formation (BODIPY)” value in test [1] (sirolimus 10 nM) was 42.73±10.62%. In test [3] (setting [8]), this molecule gave an IFN-γ production of 43.64±17.04%, an MCP-1 production of 22.76±2.56% and a TNF-α production of 40.67±6.42%. Moreover, in test [3] (setting [9]), the IL-4 secretion is listed as 6.42±3.59 fold and the IL-13 secretion was found to be 1.67±0.59 fold.

For the molecule `COc1cc(/C=C/C(=O)CC(=O)/C=C/c2ccc(O)c(OC)c2)ccc1O` [curcumin], the “foam cell generation (BODIPY)” value in test [1] (curcumin 200 uM) was determined as 31.23±5.68%. Further, in test [2] (setting [10]), the MMP-2 gene expression was 39.22±7.14%, the PECAM-1 gene expression stood at 29.71±5.68% and the VEGF-A gene expression came to 38.01±5.68%. In test [3] (setting [10]), this molecule gave an IL-8 production of 40.90±5.72% and an MCP-1 production of 76.87±3.35%. Also, in test [4] (setting [10]), the IL-1α production was found to be 80.58±4.91% and the IL-10 production is reported as 2.10±0.29 fold.

For the origin of these results see patent US20250115874A1, “Compositions And Methods For Making And Using Atherosclerotic Nanomatrix Vascular Sheets” (UAB RESEARCH FOUNDATION, priority 2023, published 2025).
